Test results reported in patent US11793755B2, “Pharmaceutical composition for intraarticular delivery” (TAIWAN LIPOSOME CO., LTD., priority 2012, dated 2023).
Read-outs that look alike come from different tables or passages of the source.

Assays:
[1] = tested on: collagen-induced arthritis; experiment: Collagen-induced arthritis model, indomethacin sustained release composition (Example 6); assay type: in vivo, Lewis rats
Text: (§1) During the 14-day study period, the rats were examined 3 times a week for the following outcomes: • Body weight loss, which is one of the parameters for evaluating the severity of arthritis. • Clinical Visual Arthritis Score, which is a visual score which correlates with the severity of arthritis. It was graded using an articular index of each paw, ranging from 0 to 4 (0=no edema or erythema on the foot pad; 1=slight edema and erythema on the foot pad; 2=mild edema and erythema on the foot pad; 3=moderate edema and erythema on the entire foot pad and the ankle; 4=severe edema and joint rigidity of the ankle, foot and digits). The Clinical Visual Arthritis Score for each rat was the sum of the articular index of both hind paws, with a maximum score of 8. • Hind paw volume and swelling. The hind paw volume was measured by UGO Plethysmometer 7149 measuring system. The final volume data was normalized with the average body weight (ml/kg) and edema was defined as the increase in paw volume on the day of measurement relative to day 0.
An in vivo evaluation of the effect of the indomethacin sustained release composition on arthritis was performed using 18 female Lewis rats (BioLASCO Taiwan Co, Ltd., Taiwan).
The arthritis treatments were initiated at the peak of the clinical visual arthritis score, which occurred at day 19. Eighteen rats were randomly divided into three groups (6 rats in each group): (1) control group (without any treatment, labeled “Control” in FIG. 9); (2) free indomethacin group (2 mg/kg indomethacin per dose, labeled “Indomethacin (2 mg/kg) in FIG. 9); and (3) indomethacin sustained release composition group (2 mg/kg indomethacin per dose; labeled “Indomethacin-BioSeizer (2 mg/kg) in FIG. 9). The rats in each group were given no treatment (control group), daily subcutaneous injection around the arthritis joints of free indomethacin or indomethacin sustained release composition, from day 19 to day 23.

[2] = tested on: collagen-induced arthritis
Text: as §1

[3] = tested on: arthritis induced with bovine type II collagen; experiment: Single IA injection of DSP sustained release compositions in arthritic rats (Example 3); assay type: in vivo, Lewis rats
Procedure: Sixteen female rats, aged 8 weeks, were used in the study. The average body weight of the rats was from about 180 to about 200 grams.
To induce arthritis, each rat was immunized with 200 μg of bovine type II collagen (4 mg/ml stocked in 10 mM acetic acid, commercially available from Elastin Products, Owensville, USA) emulsified in Freund's incomplete adjuvant (commercially available from Sigma Chemical Co., USA) on day 0 and then again on day 7.
The rats were randomized into the following 4 study groups:
Group 1: 4 rats each received 100 μl of saline per paw (labeled “Saline Control in FIGS. 1-8)
Group 3: 4 rats each received 100 μl of the sustained release composition 1 per paw, wherein the concentration of DSP is 1 mg/ml (labeled “TLC399_1 mg/mg in FIGS. 1-4 and “TLC399_I 4 mg/ml in FIGS. 5-8).
Group 4: 4 rats each received 100 μl of the sustained release composition 2 per paw, wherein the concentration of DSP is 1.4 mg/ml (labeled “TLC399_1.4 mg/mg in FIGS. 1-4 and “TLC399_II 1.4 mg/ml in FIGS. 5-8).
The control or the DSP formulation was administered to both hind paws of the rat as a once only IA injection on day 19.

[4] = tested on: arthritis induced with bovine type II collagen; experiment: Four daily IA injections of DSP sustained release compositions in arthritic rats (Example 4); assay type: in vivo, Lewis rats; conditions: four daily IA injections day 26 to day 29
Text: as §1

[5] = tested on: collagen-induced arthritis; experiment: Collagen-induced arthritis model, etanercept sustained release composition (Example 8); assay type: in vivo, Lewis rats
[6] = day 30, doses on day 23 and day 26

With `COc1ccc2c(c1)c(CC(=O)O)c(C)n2C(=O)c1ccc(Cl)cc1` [free indomethacin, Indomethacin sodium] the “average arthritis score before treatment” value ([1]; before the first dose on day 19) was 7.4, the average arthritis score ([1]; day 20, 2 mg/kg indomethacin per dose, daily from day 19 to day 23) was 5 and the arthritis score ([1]; day 25, after termination of treatment on day 23) was 8. For the same compound, the “time after termination of treatment until arthritis signs returned / amelioration continued” value ([1]; treatment day 19 to day 23) was 2 days.
`CN(Cc1cnc2nc(N)nc(N)c2n1)c1ccc(C(=O)N[C@@H](CCC(=O)[O-])C(=O)[O-])cc1.[Na+].[Na+]` [free methotrexate, methotrexate sodium] was tested, and the “average arthritis score before treatment” value ([2]; before the first dose on day 23) was 3.7, the average arthritis score ([2]; day 26, 1 mg/kg methotrexate per dose on day 23 and day 26) was 1.4 and the arthritis score [2, 6] was 3.5. The “time after termination of treatment until arthritis signs returned / amelioration continued” value ([2]; doses on day 23 and day 26) was 4 days.
In the case of “dexamethasone sodium phosphate [free DSP]”, the “paw swelling thickness, both paws” value ([3]; day 23, volume normalized with body weight) is reported as “around 7.5 ml/kg”, the “clinical visual arthritis score” value ([3]; day 26, single IA injection on day 19) is reported as 4.5 and the “clinical visual arthritis score, average” value ([3]; prior to the IA injection (day 19), sum of both hind paws, maximum 8) is reported as 4.0. The “day on which both paws became swollen again” value ([3]; single IA injection on day 19) was 23 days, the “clinical visual arthritis score, lowest recorded” value ([4]; day 30) was 3 and the “day on which paws were swollen again / first sign of paw swelling” value [4] was 31 days. For the same compound, the “day on which relapsed arthritis signs became severe” value [4] was 33 days.
For etanercept [free etanercept], the average arthritis score ([5]; day 26, 50 mg/kg etanercept per dose on day 23 and day 26) was 2.4, the arthritis score [5, 6] was 4 and the “time after termination of treatment until arthritis relapsed / amelioration continued” value ([5]; doses on day 23 and day 26) was 3 days.
